Earlier results as cited in patent publication US20040210280A1, “Plaster-type chip systems for thermodynamic control of topical dermal and transdermal systems” (BIONICS PHARMA GmbH, priority 2002, published 2004).

Assays:
[1] = in vivo
[2] = in vivo; remark: listed apart in the source

Compound	rate of disappearance from the subcutaneous tissue [1]	concentrations of nitroglycerine in the plasma [2]	plasma concentrations of nitroglycerine [2]
125I-labelled insulin: previously injected 125I-labelled insulin	increased rate of disappearance	–	–
O=[N+]([O-])OCC(CO[N+](=O)[O-])O[N+](=O)[O-] [nitroglycerine]	–	increased by two to three times	decrease
